Test in all cases: inhibition of tumour cell growth, NCI panel, 48 h
The subject of assay [1] is IGROV1 ovarian.
In assay [2] the test system is SK-OV-3 ovarian.
Assay [3] has as its system HCT-116 colon.
In assay [4] the test system is SK-MEL-28 melanoma.
Assay [5] concerns NCI-H460 lung.
Assay [6] has as its system KM20L2 colon.
In assay [7] the test system is NCI-H23 lung.
Assay [8] relates to DLD-1 colon.

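These data come from cells grown in 96-well plates and exposed to compound for 48 hours at five concentrations. The concentration for 50% growth inhibition is given as GI50. TGI is the concentration that stops growth completely.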

Drawing on PubChem BioAssay (NCI), this text covers TGI and GI50 for 15 compounds.

Take `O=C1N[C@@H](O)[C@@H]2ON=C(c3ccccc3)[C@H]12`: the TGI in assay [1], in assay [2], in assay [3], in assay [4], in assay [5] and in assay [6] was over 100 µM throughout. Moreover, the TGI in assay [7] and in assay [8] was over 100 µM in each case.

Take `CN1CCN(C)C1c1cccc(C2N(C)CCN2C)c1`: the TGI in assay [1], in assay [2], in assay [3], in assay [4], in assay [5] and in assay [6] was over 100 µM in each case. The TGI in assay [7] and in assay [8] was over 100 µM each time.

As for `O=C1c2ccccc2-c2cccc3ccc(Cc4ccccc4)c1c23`, the TGI in assay [1], in assay [3], in assay [4], in assay [5], in assay [6] and in assay [7] was over 100 µM throughout. This compound had a TGI in assay [8] of over 100 µM.

For the compound `O=c1c2ccccc2c2c3c1cccc3c1cccc3c(=O)c4ccccc4c2c31`, the TGI in assay [1], in assay [2], in assay [3], in assay [4], in assay [5] and in assay [6] was over 100 µM each time. Besides, the TGI in assay [7] and in assay [8] was over 100 µM in each case.

For `c1ccc2c(c1)N=C(c1cccc3ccccc13)CC(c1cccc3ccccc13)S2` (centres undefined), the TGI was 19.7 µM in assay [1]; 29.8 µM in assay [2]; 12.9 µM in assay [3]; 25.9 µM in assay [4]; 19.5 µM in assay [5]; 10.4 µM in assay [6]. Further, the TGI in assay [7] was 12.5 µM; in assay [8] it was 16.2 µM.

Turning to `CC(=O)c1c(C)n([O-])c2cc(C)c(C)cc2[n+]1=O`, the TGI in assay [1], in assay [2], in assay [4], in assay [5], in assay [6] and in assay [7] was over 100 µM throughout. For the same compound, in assay [8], the TGI is over 100 µM.

On to `N#Cc1c(N)c(C(=O)O)nn(-c2cccc(C(F)(F)F)c2)c1=O`, for which the TGI in assay [1], in assay [2], in assay [3], in assay [4], in assay [5] and in assay [6] was over 100 µM each time. Further, the TGI in assay [7] and in assay [8] was over 100 µM each time.

In the case of `O=C(Nc1ccc(S(=O)(=O)N[C@@H](C(=O)O)c2ccccc2)cc1)c1ccc(F)cc1`, the TGI in assay [1], in assay [2], in assay [4], in assay [5], in assay [6] and in assay [7] was over 100 µM each time. In assay [8], this compound displayed a TGI of over 100 µM.

For `COc1cc(/C=C\c2ccc(O)cc2)cc(OC)c1OC`, the TGI was over 100 µM in assay [1]; 61.6 µM in assay [2]; over 59.8 µM in assay [3]; 9.61 µM in assay [4]; over 30 µM in assay [5]; over 100 µM in assay [6]. The compound further had a TGI in assay [8] of over 100 µM.

As for `NC1=NC(=O)C(CC(=O)Nc2ccc([N+](=O)[O-])cc2[N+](=O)[O-])S1` (centres undefined), the TGI in assay [1], in assay [3], in assay [4], in assay [5], in assay [6] and in assay [7] was over 100 µM each time. Besides, in assay [8], the TGI is over 100 µM.

Consider `CC(=O)OCCOCBr`, for which the TGI in assay [1], in assay [2], in assay [3], in assay [4], in assay [5] and in assay [6] was over 100 µM throughout. For the same compound, the TGI in assay [8] was over 100 µM.

`CC1=Nc2c(ccc3c2C(=O)c2ccccc2C3=O)NC(c2ccncc2)C1` (centres undefined): the TGI in assay [1], in assay [2], in assay [3], in assay [4], in assay [5] and in assay [6] was over 100 µM throughout. Moreover, the TGI in assay [7] and in assay [8] was over 100 µM in each case. Further, the GI50 in assay [4], in assay [5], in assay [6] and in assay [7] was over 100 µM each time.

For `COc1ccc(C(=O)C(C(=O)CCC(=O)Nc2cccc(C(F)(F)F)c2)c2ccccc2)cc1` (centres undefined), the TGI in assay [1], in assay [2], in assay [3], in assay [4], in assay [5] and in assay [6] was over 100 µM throughout. Further, the TGI in assay [7] and in assay [8] was over 100 µM throughout.

Turning to `CC/C=C\C/C=C\C1CC(=O)NCCCNCCCCN1` (centres undefined), the TGI in assay [3], in assay [4], in assay [5], in assay [6], in assay [7] and in assay [8] was over 100 µM in each case.

Consider `c1cc[c]([Sn]([S]c2cccc3cccnc23)([c]2ccccc2)[c]2ccccc2)cc1`, for which the GI50 in assay [1] was 0.0943 µM; in assay [2], 0.107 µM; in assay [3], 0.0161 µM; in assay [4] it was 0.0364 µM; in assay [5] it was 0.0143 µM; in assay [6], 0.0338 µM. Also, the values for the GI50 in assay [7] and in assay [8] were 0.0305 µM and 0.0321 µM, respectively. The TGI in assay [1] amounted to 0.351 µM; in assay [2], 0.356 µM; in assay [3] it was 0.039 µM; in assay [4] it was 0.15 µM; in assay [5], 0.033 µM; in assay [6], 0.109 µM. For the same compound, the TGI in assay [7] is 0.175 µM; in assay [8], 0.101 µM.
